Laboratory results as given in US20240382629A1, “HETEROBIVALENT AND HOMOBIVALENT AGENTS TARGETING FIBROBLAST ACTIVATION PROTEIN ALPHA AND/OR PROSTATE-SPECIFIC MEMBRANE ANTIGEN” (The Johns Hopkins University, priority 2021, published 2024).
“And” between values parts separate entries of the source, which are not always exact repeats. Identical values can stand only once.

Test: Biodistribution of representative compounds ([^18F]Sri-07-56, [^18F]Sri-07-52, [^18F]JHU1221823, [^18F]FAPI-74), tissue % ID/g with carrier or blocker
Type: in vivo, mouse
Conditions: 20 μCi per mouse; for Bladder % ID/g / Blood % ID/g / Brain % ID/g / Fat % ID/g / Femur % ID/g / Heart % ID/g / Kidney % ID/g / Large intestine % ID/g / Liver % ID/g / Lung % ID/g / Muscle % ID/g / Pancreas % ID/g / Salivery gland % ID/g / Small intestine % ID/g / Spleen % ID/g / Stomach % ID/g / Tumor % ID/g: individual mice
From the text: Biodistribution of Representative Compounds

With `N#C[C@@H]1CCCN1C(=O)CNC(=O)c1ccnc2ccc(OCCCNC(=O)CCOCCOCCOCCOCCNC(=O)[C@H](CCCCNC(=O)c3ccc([18F])nc3)NC(=O)CN3CCN(CC(=O)O)CCN(CC(=O)O)CCN(CC(=O)O)CC3)cc12` [[^18F]JHU1221823] the “Bladder % ID/g Mean” value (60 min) was 4.53 % ID/g, the “Blood % ID/g Mean” value (60 min) was 9.54 % ID/g and the “Brain % ID/g Mean” value (60 min) was 0.22 % ID/g. The “Fat % ID/g Mean” value (60 min) was 1.07 % ID/g, the “Femur % ID/g Mean” value (60 min) was 2.83 % ID/g and the “Heart % ID/g Mean” value (60 min) was 4.65 % ID/g. For the same molecule, the “Kidney % ID/g Mean” value (60 min) was 2.73 % ID/g, the “Large intestine % ID/g Mean” value (60 min) was 1.49 % ID/g and the “Liver % ID/g Mean” value (60 min) was 2.99 % ID/g. The “Lung % ID/g Mean” value (60 min) was 5.72 % ID/g, the “Muscle % ID/g Mean” value (60 min) was 1.78 % ID/g and the “Pancreas % ID/g Mean” value (60 min) was 2.14 % ID/g. For the same molecule, the “Salivary gland % ID/g Mean” value (60 min) was 6.93 % ID/g, the “Small intestine % ID/g Mean” value (60 min) was 3.02 % ID/g and the “Spleen % ID/g Mean” value (60 min) was 2.15 % ID/g. The “Stomach % ID/g Mean” value (60 min) was 1.14 % ID/g, the “Tumor % ID/g Mean” value (60 min) was 5.71 % ID/g and the “Bladder % ID/g” value (60 min) was 6.41 % ID/g and 2.64 % ID/g. For the same molecule, the “Blood % ID/g” value (60 min) was 9.28 % ID/g and 9.80 % ID/g, the “Brain % ID/g” value (60 min) was 0.23 % ID/g and 0.22 % ID/g and the “Fat % ID/g” value (60 min) was 0.47 % ID/g and 1.68 % ID/g. The “Femur % ID/g” value (60 min) was 2.55 % ID/g and 3.11 % ID/g, the “Heart % ID/g” value (60 min) was 4.31 % ID/g and 4.98 % ID/g and the “Kidney % ID/g” value (60 min) was 2.70 % ID/g and 2.77 % ID/g. For the same molecule, the “Large intestine % ID/g” value (60 min) was 1.29 % ID/g and 1.69 % ID/g, the “Liver % ID/g” value (60 min) was 2.68 % ID/g and 3.29 % ID/g and the “Lung % ID/g” value (60 min) was 5.53 % ID/g and 5.91 % ID/g. The “Muscle % ID/g” value (60 min) was 1.79 % ID/g and 1.78 % ID/g, the “Pancreas % ID/g” value (60 min) was 1.62 % ID/g and 2.66 % ID/g and the “Salivery gland % ID/g” value (60 min) was 7.44 % ID/g and 6.43 % ID/g. The “Small intestine % ID/g” value (60 min) was 2.59 % ID/g and 3.46 % ID/g, the “Spleen % ID/g” value (60 min) was 1.86 % ID/g and 2.43 % ID/g and the “Stomach % ID/g” value (60 min) was 0.84 % ID/g and 1.45 % ID/g. For the same molecule, the “Tumor % ID/g” value (60 min) was 4.35 % ID/g and 7.05 % ID/g, the “Bladder % ID/g Mean” value (120 min) was 1.92 % ID/g and the “Blood % ID/g Mean” value (120 min) was 6.28 % ID/g. The “Brain % ID/g Mean” value (120 min) was 0.18 % ID/g, the “Fat % ID/g Mean” value (120 min) was 1.45 % ID/g and the “Femur % ID/g Mean” value (120 min) was 1.61 % ID/g. The “Heart % ID/g Mean” value (120 min) was 3.49 % ID/g, the “Kidney % ID/g Mean” value (120 min) was 1.93 % ID/g and the “Large intestine % ID/g Mean” value (120 min) was 1.38 % ID/g. For the same molecule, the “Liver % ID/g Mean” value (120 min) was 2.18 % ID/g, the “Lung % ID/g Mean” value (120 min) was 3.65 % ID/g and the “Muscle % ID/g Mean” value (120 min) was 1.16 % ID/g. For the same molecule, the “Pancreas % ID/g Mean” value (120 min) was 4.67 % ID/g, the “Salivary gland % ID/g Mean” value (120 min) was 8.11 % ID/g and the “Small intestine % ID/g Mean” value (120 min) was 2.04 % ID/g. The “Spleen % ID/g Mean” value (120 min) was 1.58 % ID/g, the “Stomach % ID/g Mean” value (120 min) was 1.24 % ID/g and the “Tumor % ID/g Mean” value (120 min) was 2.91 % ID/g. For the same molecule, the “Bladder % ID/g” value (120 min) was 2.63 % ID/g and 1.21 % ID/g, the “Blood % ID/g” value (120 min) was 5.77 % ID/g and 6.78 % ID/g and the “Brain % ID/g” value (120 min) was 0.19 % ID/g and 0.17 % ID/g. For the same molecule, the “Fat % ID/g” value (120 min) was 0.97 % ID/g and 1.93 % ID/g, the “Femur % ID/g” value (120 min) was 1.71 % ID/g and 1.91 % ID/g and the “Heart % ID/g” value (120 min) was 3.18 % ID/g and 3.79 % ID/g. For the same molecule, the “Kidney % ID/g” value (120 min) was 1.61 % ID/g and 2.24 % ID/g, the “Large intestine % ID/g” value (120 min) was 1.40 % ID/g and 1.36 % ID/g and the “Liver % ID/g” value (120 min) was 1.94 % ID/g and 2.42 % ID/g. For the same molecule, the “Lung % ID/g” value (120 min) was 3.13 % ID/g and 4.16 % ID/g, the “Muscle % ID/g” value (120 min) was 1.18 % ID/g and 1.15 % ID/g and the “Pancreas % ID/g” value (120 min) was 4.03 % ID/g and 5.32 % ID/g. For the same molecule, the “Salivery gland % ID/g” value (120 min) was 5.17 % ID/g and 11.05 % ID/g, the “Small intestine % ID/g” value (120 min) was 1.88 % ID/g and 2.21 % ID/g and the “Spleen % ID/g” value (120 min) was 1.49 % ID/g and 1.67 % ID/g. The “Stomach % ID/g” value (120 min) was 1.11 % ID/g and 1.37 % ID/g and the “Tumor % ID/g” value (120 min) was 2.88 % ID/g and 2.94 % ID/g.
